Test results published in patent US8445489B2, “Aryl ether pyridazinone derivatives” (Merck Patent GmbH, priority 2007, dated 2013).
pIC50: −log10 of the molar value.

system: TPR-Met/NIH3T3 cells; assay: In-vivo test, TPR-Met/NIH3T3 tumour model in mice; conditions: 200 mg/kg daily by gastric tube, 9 days; tumour volume; female Balb/C mice, s.c. TPR-Met/NIH3T3 cells
Description: Female Balb/C mice (breeder: Charles River Wiga) were 5 weeks old on arrival. They were acclimatised to our keeping conditions for 7 days. Each mouse was subsequently injected subcutaneously in the pelvic area with 4 million TPR-Met/NIH3T3 cells in 100 μl of PBS (without Ca++ and Mg++). […] 100 μl of vehicle (0.25% methylcellulose/100 mM acetate buffer, pH 5.5) were administered daily to the control group, and 200 mg/kg of “A56” or “A91” dissolved in the vehicle (volume likewise 100 μl/animal) were administered daily to the treatment groups, in each case by gastric tube.
The length (L) and breadth (B) were measured using a Vernier calliper, and the tumour volume was calculated from the formula L×B×B/2.
4 or 5 animals per cage, feeding with commercial mouse food (Sniff).

| SMILES | antitumoural action |
| --- | --- |
| CN1CCN(CCCOc2c(F)cc(-c3ccc(=O)n(Cc4ccc5[nH]c(=O)[nH]c5c4)n3)cc2F)CC1 [Compound A56, 5-(3-{3,5-difluoro-4-[3-(4-methylpiperazin-1-yl)propoxy]-phenyl}-6-oxo-6H-pyridazin-1-ylmethyl)-1,3-dihydrobenzimidazol-2-one] | significant antitumoural action |

molecular target: T1, Met kinase (Homo sapiens, UniProt P08581); assay: Met kinase inhibition (enzyme assay), flashplate method; format: biochemical; conditions: not given
T1 construct: 6His (N); purchased Upstate 14-526; host or cells: Sf21 insect cells (S. frugiperda), baculovirus
T1 sequence (P08581 956-1390 limits assumed): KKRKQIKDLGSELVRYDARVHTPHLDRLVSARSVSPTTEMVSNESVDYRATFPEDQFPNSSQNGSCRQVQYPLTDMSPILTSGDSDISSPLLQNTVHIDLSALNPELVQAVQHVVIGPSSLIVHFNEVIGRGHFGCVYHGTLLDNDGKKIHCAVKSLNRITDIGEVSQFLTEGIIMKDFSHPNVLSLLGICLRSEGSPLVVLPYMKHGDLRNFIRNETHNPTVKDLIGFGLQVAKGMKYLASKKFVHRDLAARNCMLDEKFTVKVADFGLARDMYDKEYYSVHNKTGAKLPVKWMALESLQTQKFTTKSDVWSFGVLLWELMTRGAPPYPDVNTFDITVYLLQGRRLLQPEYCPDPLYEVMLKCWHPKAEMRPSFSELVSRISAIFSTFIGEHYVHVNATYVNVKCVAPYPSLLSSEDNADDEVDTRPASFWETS
Source text: According to the manufacturer's data (Met, active, upstate, catalogue No. 14-526), Met kinase is expressed for the purposes of protein production in insect cells (Sf21; S. frugiperda) and subsequent affinity-chromatographic purification as “N-terminal 6His-tagged” recombinant human protein in a baculovirus expression vector.
The test plates used are 96-well Flashplate® microtitre plates from Perkin Elmer (Cat. No. SMP200). The components of the kinase reaction described below are pipetted into the assay plate. The Met kinase and the substrate poly Ala-Glu-Lys-Tyr, (pAGLT, 6:2:5:1), are incubated for 3 hrs at room temperature with radioactively labelled ^33P-ATP in the presence and absence of test substances in a total volume of 100 μl. The reaction is terminated using 150 μl of a 60 mM EDTA solution. After incubation for a further 30 min at room temperature, the supernatants are filtered off with suction, and the wells are washed three times with 200 μl of 0.9% NaCl solution each time. The measurement of the bound radioactivity is carried out by means of a scintillation measuring instrument (Topcount NXT, Perkin-Elmer).
The full value used is the inhibitor-free kinase reaction. This should be approximately in the range 6000-9000 cpm. The pharmacological zero value used is staurosporin in a final concentration of 0.1 mM. The inhibitory values (IC50) are determined using the RS1_MTS program.
Kinase Reaction Conditions Per Well:
10 μl of substance to be tested in assay buffer with 10% of DMSO
10 μl of ATP (final concentration 1 μM cold, 0.35 μCi of ^33P-ATP)
50 μl of Met kinase/substrate mixture in assay buffer;
• (10 ng of enzyme/well, 50 ng of pAGLT/well)
50 mM HEPES • 3 mM magnesium chloride • 3 μM sodium orthovanadate • 3 mM manganese(II) chloride • 1 mM dithiothreitol (DTT) pH=7.5 (to be set using sodium hydroxide)
60 mM Titriplex III (EDTA) • ^33P-ATP: Perkin-Elmer; • Met kinase: Upstate, Cat. No. 14-526, Stock 1 μg/10 μl; spec. activity 954 U/mg; • Poly-Ala-Glu-Lys-Tyr, 6:2:5:1: Sigma Cat. No. P1152 In-Vivo Tests (FIG. 1/1) Experimental Procedure: […]

| SMILES | pIC50 |
| --- | --- |
| CCOC(=O)Nc1cccc(Cn2nc(-c3cc(F)c(OCCCCCNC(=O)OC(C)(C)C)c(F)c3)ccc2=O)c1 [Compound A31] | 6.00 to 8.00 |
| CCOC(=O)Nc1cccc(Cn2nc(-c3ccc(OCCCCN)cc3)ccc2=O)c1 [Compound A50] | 6.00 to 8.00 |
| CN1CCN(CCCOc2c(F)cc(-c3ccc(=O)n(Cc4ccc5[nH]c(=O)[nH]c5c4)n3)cc2F)CC1 [Compound A56, 5-(3-{3,5-difluoro-4-[3-(4-methylpiperazin-1-yl)propoxy]-phenyl}-6-oxo-6H-pyridazin-1-ylmethyl)-1,3-dihydrobenzimidazol-2-one] | 6.00 to 8.00 |
| CCOC(=O)Nc1cccc(Cn2nc(-c3cc(F)c(OCCCN4CCOCC4=O)c(F)c3)ccc2=O)c1 [Compound A28] | 6.00 to 8.00 |
| CCOC(=O)Nc1cccc(Cn2nc(-c3ccc(OCCCN4CCCCC4)cc3)ccc2=O)c1 [Compound A16] | 6.00 to 8.00 |
| CCOC(=O)Nc1cccc(Cn2nc(-c3cc(F)c(OCCCN4CCCC4)c(F)c3)ccc2=O)c1 [Compound A43] | 6.00 to 8.00 |
| CCOC(=O)Nc1cccc(Cn2nc(-c3cccc(OCCCO)c3)ccc2=O)c1 [Compound A19] | 6.00 to 8.00 |
| CCOC(=O)Nc1cccc(Cn2nc(-c3ccc(OCCN)cc3)ccc2=O)c1 [Compound A48] | 6.00 to 8.00 |
| CCOC(=O)Nc1cccc(Cn2nc(-c3cc(F)c(OCCN)c(F)c3)ccc2=O)c1 [Compound A45] | 6.00 to 8.00 |
| CCOC(=O)Nc1cccc(Cn2nc(-c3ccc(OCCCOC)cc3)ccc2=O)c1 [Compound A11] | 6.00 to 8.00 |
| CCOC(=O)Nc1cccc(Cn2nc(-c3cccc(OCCCCNC(=O)OC(C)(C)C)c3)ccc2=O)c1 [Compound A23] | 6.00 to 8.00 |
| CCOC(=O)Nc1cccc(Cn2nc(-c3ccc(OCCN(C(C)C)C(C)C)cc3)ccc2=O)c1 [Compound A13] | 6.00 to 8.00 |
| CCOC(=O)Nc1cccc(Cn2nc(-c3cccc(OCCN4CCOCC4)c3)ccc2=O)c1 [Compound A24] | 6.00 to 8.00 |
| CCOC(=O)Nc1cccc(Cn2nc(-c3ccc(OCCCCO)cc3)ccc2=O)c1 [Compound A10] | 6.00 to 8.00 |
| CCOC(=O)Nc1cccc(Cn2nc(-c3ccc(OCCCCCN)cc3)ccc2=O)c1 [Compound A44] | 6.00 to 8.00 |
| CCOC(=O)Nc1cccc(Cn2nc(-c3ccc(OCCO)cc3)ccc2=O)c1 [Compound A9] | 6.00 to 8.00 |
| CCOC(=O)Nc1cccc(Cn2nc(-c3ccc(OCCCCOC)cc3)ccc2=O)c1 [Compound A7] | 6.00 to 8.00 |
| CCOC(=O)Nc1cccc(Cn2nc(-c3cc(F)c(OCCCNC)c(F)c3)ccc2=O)c1 [Compound A29a] | 6.00 to 8.00 |
| CCOC(=O)Nc1cccc(Cn2nc(-c3cccc(OCCOC)c3)ccc2=O)c1 [Compound A21] | 6.00 to 8.00 |
| CCOC(=O)Nc1cccc(Cn2nc(-c3ccc(OCCCN(C)C)cc3)ccc2=O)c1 [Compound A3] | 6.00 to 8.00 |
| CCOC(=O)Nc1cccc(Cn2nc(-c3cc(F)c(OCCCN)c(F)c3)ccc2=O)c1 [Compound A53] | 6.00 to 8.00 |
| CCOC(=O)Nc1cccc(Cn2nc(-c3cc(F)c(OCCCCCN)c(F)c3)ccc2=O)c1 [Compound A52] | 6.00 to 8.00 |
| CCOC(=O)Nc1cccc(Cn2nc(-c3cc(F)c(OCCCO)c(F)c3)ccc2=O)c1 [Compound A38] | 6.00 to 8.00 |

| SMILES | pIC50 |
| --- | --- |
| CCOC(=O)Nc1cccc(Cn2nc(-c3ccc(OCCC4CCCN4C)cc3)ccc2=O)c1 (stereo not shown) [Compound A17] | 6.00 to 8.00 |
| CCOC(=O)Nc1cccc(Cn2nc(-c3cccc(OCCNC(=O)OC(C)(C)C)c3)ccc2=O)c1 [Compound A26] | 6.00 to 8.00 |
| CCOC(=O)Nc1cccc(Cn2nc(-c3ccc(OCC(C)CN4CCOCC4)cc3)ccc2=O)c1 (stereo not shown) [Compound A18] | 6.00 to 8.00 |
| CCOC(=O)Nc1cccc(Cn2nc(-c3cccc(OCCCCN)c3)ccc2=O)c1 [Compound A49] | 6.00 to 8.00 |
| CCOC(=O)Nc1cccc(Cn2nc(-c3ccc(OCCCO)cc3)ccc2=O)c1 [Compound A2] | 6.00 to 8.00 |
| CCOC(=O)Nc1cccc(Cn2nc(-c3cc(F)c(OCCOC)c(F)c3)ccc2=O)c1 [Compound A34] | 6.00 to 8.00 |
| CCOC(=O)Nc1cccc(Cn2nc(-c3cccc(OCCCCOC)c3)ccc2=O)c1 [Compound A20] | 6.00 to 8.00 |
| CCOC(=O)Nc1cccc(Cn2nc(-c3ccc(OCC(=O)N(C)C)cc3)ccc2=O)c1 [Compound A14] | 6.00 to 8.00 |
| CCOC(=O)Nc1cccc(Cn2nc(-c3cc(F)c(OCCCCO)c(F)c3)ccc2=O)c1 [Compound A35] | 6.00 to 8.00 |
| CN(C)CCCOc1c(F)cc(-c2ccc(=O)n(Cc3ccc4[nH]c(=O)[nH]c4c3)n2)cc1F [Compound A55, 5-{3-[4-(3-dimethylaminopropoxy)-3,5-difluorophenyl]-6-oxo-6H-pyridazin-1-ylmethyl}-1,3-dihydrobenzimidazol-2-one] | 6.00 to 8.00 |
| CCOC(=O)Nc1cccc(Cn2nc(-c3cc(F)c(OCCCN(C)C)c(F)c3)ccc2=O)c1 [Compound A27] | 6.00 to 8.00 |
| CCOC(=O)Nc1cccc(Cn2nc(-c3ccc(OCCN(C)C)cc3)ccc2=O)c1 [Compound A8] | 6.00 to 8.00 |
| CCOC(=O)Nc1cccc(Cn2nc(-c3cc(F)c(OCCN(C)C)c(F)c3)ccc2=O)c1 [Compound A33] | 6.00 to 8.00 |
| CCOC(=O)Nc1cccc(Cn2nc(-c3ccc(OCCN4CCOCC4)cc3)ccc2=O)c1 [Compound A1] | 6.00 to 8.00 |
| CCOC(=O)Nc1cccc(Cn2nc(-c3ccc(OCCNC(=O)OC(C)(C)C)cc3)ccc2=O)c1 [Compound A6] | 6.00 to 8.00 |
| CCOC(=O)Nc1cccc(Cn2nc(-c3cccc(OCCCCO)c3)ccc2=O)c1 [Compound A22] | 6.00 to 8.00 |
| CCOC(=O)Nc1cccc(Cn2nc(-c3cccc(OCCCOC)c3)ccc2=O)c1 [Compound A25] | 6.00 to 8.00 |
| CCOC(=O)Nc1cccc(Cn2nc(-c3ccc(OCCOC)cc3)ccc2=O)c1 [Compound A5] | 6.00 to 8.00 |
| CCOC(=O)Nc1cccc(Cn2nc(-c3cc(F)c(OCCCOC)c(F)c3)ccc2=O)c1 [Compound A37] | 6.00 to 8.00 |
| CCOC(=O)Nc1cccc(Cn2nc(-c3ccc(OC4CCCN(CC)C4)cc3)ccc2=O)c1 (stereo not shown) [Compound A15] | 6.00 to 8.00 |
| CCOC(=O)Nc1cccc(Cn2nc(-c3ccc(OCCCCCNC(=O)OC(C)(C)C)cc3)ccc2=O)c1 [Compound A4] | 6.00 to 8.00 |
| CCOC(=O)Nc1cccc(Cn2nc(-c3ccc(OCCCCNC(=O)OC(C)(C)C)cc3)ccc2=O)c1 [Compound A12] | 6.00 to 8.00 |
